Reference: patent US7642261B2, “Use of 1-[4-(5-cyanoindol-3-yl)butyl]-4-(2-carbamoyl-benzofuran-5-yl)-piperazine and its physiologically acceptable salts” (Merck Patent GmbH, priority 2002, dated 2010)

Assays:
Format in all cases: in vivo
[1] = test system: rats; assay: Elevated Plus Maze (model for agoraphobia), rats; details: 10 mg/kg p.o., 3 min test period
Experimental: A typical model for Agoraphobia is named Elevated Plus Maze according to S. Pellow, P. Chopin, S. E. File, M. Briley, J. Neurosci. Meth., 1985,14: 145-167.
The apparatus consists of an X-shaped platform elevated from the floor, with two “open” unprotected arms and two “closed” protected arms, with animals having free access to both arms. The rat or mouse is placed in the centre of the arms, and the number of entires made and the time spent on the open arms is measured in a 3 min test period. Normal animals have very low basal levels, i.e. avoid entering the open arms and stay only a for a very brief period on open arms.
In rats, a dose of 10 mg/kg p.o. increased number of entries by 56% and time spent on open arms by 76%.

[2] = test system: rats; assay: Social Interaction Test (model for social phobia); details: pairs of unfamiliar rats, oral dose of 10 mg/kg, 300 sec total time; vehicle 116 sec
Experimental: A model for social phobia is the Social Interaction Test according to S. File, J. R. G Hyde, J. Pharm. Pharmacol. 1977, 29: 735-738. Pairs of rats not familiar with each other are placed in an open test box brightly lit (aversive condition), and the number and duration of social contacts during a 5 min test session are recorded.
1-[4-(5-cyanoindol-3-yl)butyl]-4-(2-carbamoyl-benzofuran-5-yl)-piperazine or one of its physiologically acceptable salts, in particular 1-[4-(5-cyanoindol-3-yl)butyl]-4-(2-carbamoyl-benzofuran-5-yl)-piperazine hydrochloride, increase the time spent in social interaction. For example, for an oral dose of 10 mg/kg of 1-[4-(5-cyanoindol-3-yl)butyl]-4-(2-carbamoyl-benzofuran-5-yl)-piperazine hydrochloride the pairs of rats unfamiliar to each other spend 144 sec of the 300 sec of total time with social interaction compared to 116 sec for the vehicle treated pairs of rats.

[3] = test system: mice; assay: Light-Dark Choice Test (model for generalized anxiety disorders); details: oral dose of 10 mg/kg, 5 min
Experimental: A typical model for generalized anxiety disorders is the Light-Dark Chaise Test […] according to J. N. Crawly, Pharmacol. Biochem Behav. 1981,15: 695-699.
The light-dark choise apparatus consists of two connected boxes with one box darkened and the other one highly illuminated. A mouse is placed in one box, and the time spent in lit box and the number of transitions between boxes are measured over a period of 5 min. Normal mice only have low numbers of entries to the lit compartment and spent most time in the dark compartment.
1-[4-(5-cyanoindol-3-yl)butyl]-4-(2-carbamoyl-benzofuran-5-yl)-piperazine or one of its physiologically acceptable salts, in particular 1-[4-(5-cyanoindol-3-yl)butyl]-4-(2-carbamoyl-benzofuran-5-yl)-piperazine hydrochloride, following oral application dose -dependently increase the number of transitions and time spent in lit compartment. For example, an oral dose of 10 mg/kg of 1-[4-(5-cyanoindol-3-yl)butyl]-4-(2-carbamoyl-benzofuran-5-yl)-piperazine hydrochloride increased the number of transitions by 73% and time spent in lit compartment by 31%.

[4] = test system: mice or rats; assay: Hyperactivity induced by a mixture of dexamphetamine and chlordiazepoxide (model of mania/bipolar disorders); details: compared with lithium and valproate
Description: A typical animal model of mania/bipolar disorders is the hyperactivity induced by a mixture of dexamphetamine and chlordiazepoxide according to A. L. Vale and F. Ratcliffe, Psychopharmacology, 1987; 91: 352-355, and B. J. Cao and N. A. Peng, Eur. J. Pharmacol., 1993; 237: 177-181. The dexamphetamine-chlordiazepoxide mixture induces strong hyperactivity in mice or rats.

[5] = test system: rats; assay: Passive Avoidance test with scopolamine (model for dementia); details: 10 mg/kg p.o., compared to untreated rats
Description: Typical models for dementia, Alzheimer's disease and multi-infarct are the Passive Avoidance test in rats [S. D. Glick and B. Zimmerberg, Behav. Biol., 1972, 7: 245-254; D. K. Rush, Behav. Neural Biol., 1988, 50: 255-274] and the testing of memory functions in the Morris Water Maze in aged rats [R. Morris, J. Neurosci. Methods, 1984, 11: 47-60, F. H. Gage et al. Neurobiol. Aging. 1984, 5: 43-48].
For the Passive Avoidance test, the apparatus is a runway separated from a dark compartment by a small door. The amnestic drug scopolamine is administered before the animal is submitted to an aquisition trial: the rat is placed on the entry of the runway opposite to the dark compartment, the latency to enter the dark compartment is recorded, and once the rat has entered the dark compartment, the door is closed and a foot schock is administered via the gridfloor. A retention trial is performed 48 h later identical to the aquisition trial (without scopolamine) and the latency to enter the dark compartment recorded again. […]

[6] = test system: rats
Experimental: A typical animal model is the drug discrimination procedure in rats using cocaine as the stimulus cue (e.g. D. M. Wood and M. W. Emmett-Oglesby, J. Pharmacol. Exp. Ther., 1986; 237: 120-125; D. Huang and M. C. Wilson, Pharmacol. Biochem. Behav., 1986; 24: 205-210; J. M. Witkin at al., J. Pharmacol. Exp. Ther, 1991; 257: 706-713). Rats are trained to discriminate 10 mg/kg cocaine from saline in a two-lever discrimination procedure. Compounds which substitute for cocaine produce a dose-dependent increase in cocaine-appropriate responding, i.e. in selecting the cocaine-paired lever.
1-[4-(5-cyanoindol-3-yl)butyl]-4-(2-carbamoyl-benzofuran-5-yl)-piperazine or one of its physiologically acceptable salts, in particular 1-[4-(5-cyanoindol-3-yl)butyl]-4-(2-carbamoyl-benzofuran-5-yl)-piperazine hydrochloride, dose-dependently but only partially substituted for cocaine (maximally 60% choise of cocaine-paired lever at 50 mg/kg p.o.).

[7] = Abdominal constriction (writhing) test; details: 30 mg/kg p.c.
Experimental: Rapid procedures to test pain-relieving properties of drugs are the abdominal constriction (writhing) test according to E. Siegmund et all., Proc. Soc. Exp. Biol. Med. 1957, 95: 729-731 and the intradermal formalin test according to S. Hunskaar et al., J. Neurosci. Meth. 1985, 14: 69-76. For example, 1-[4-(5-cyanoindol-3-y1)butyl]-4-(2-carbamoyl-benzofuran-5-yl)-piperazine hydrochloride at 30 mg/kg p.c. reduced abdominal contrictions by 82%, and 10 mg/kg p.o. reduced the formalin-induced pain response by 79%.

Cl.N#Cc1ccc2[nH]cc(CCCCN3CCN(c4ccc5oc(C(N)=O)cc5c4)CC3)c2c1 [1-[4-(5-cyanoindol-3-yl)butyl]-4-(2-carbamoyl-benzofuran-5-yl)-piperazine hydrochloride]
increase of number of entries on open arms [1]: 56% | increase of time spent on open arms [1]: 76% | time spent in social interaction [2]: 144 s | increase of number of transitions [3]: 73% | increase of time spent in lit compartment [3]: 31% | inhibition of hyperactivity induced by the dexamphetamine-chlordiazepoxide mixture [4]: to the same degree as do lithium and valproate | increase of latency to enter the dark compartment in the first retention trial [5]: 78% | stimulus drug property by itself (abuse potential) ([6]; rat, in vivo): does not serve as a stimulus drug by itself | maximal choice of cocaine-paired lever (partial substitution for cocaine) ([6]; rats trained on 10 mg/kg cocaine vs saline, 50 mg/kg p.o.): 60% | reduction of abdominal constrictions [7]: 82%
